# Where two headings read alike, the source gives them in different places.
# Key:
# [1] = Short-term (bench-top) and frozen storage stability of MJC13 in rat plasma and rat urine; format: in vitro ADME
# Procedure: Short-term stability (bench-top stability) of MJC13 in rat plasma and rat urine were evaluated by analyzing triplicates of QC samples at low, medium, and high concentrations. Plasma samples were removed from frozen storage (−20° C.) and remained on the bench-top for 2, 4, or 6 hours. All of those samples were compared with freshly prepared samples at the same concentrations. […] Another set of plasma samples were stored at −80° C. for 7 days.
# (§1) The stability of MJC13 in rat urine was conducted in the same fashion as in rat plasma.
# [2] = Freeze-thaw stability of MJC13 in rat plasma and rat urine; format: in vitro ADME
# Procedure: Freeze-thaw stability of MJC13 in rat plasma and rat urine were evaluated by analyzing QC samples at low, medium, and high concentrations. Plasma samples that were exposed for three cycles of freezing (at −20° C.) and thawing (at room temperature) were compared with freshly prepared samples at the same concentrations.
# as §1
# [3] = Processed sample (autosampler) stability of MJC13 rat plasma and urine extracts; format: physicochemical; details: for average recoveries: acetonitrile with IS; for recoveries: acetonitrile without IS
# Procedure: Processed sample stability (on-instrument or autosampler stability) of MJC13 rat plasma extracts and rat urine extracts were evaluated by analyzing QC samples at low, medium, and high concentrations. Two sets of plasma samples were extracted with acetonitrile with and without IS, respectively. The plasma extracts were kept in the autosampler for 2, 4, or 6 hours, before injecting into the LC-MS/MS. All of those samples were compared with freshly prepared samples at the same concentrations.
# [4] = Solubility of MJC13 in various solvents, shake-flask method; format: physicochemical; details: thermodynamic from solid
# Procedure: The solubility of MJC13 was evalulated. Because there is no ionizable functional group on the molecular structure, the solubility of MJC13 was expected to be low in water and barely affected by pH. In this work, the solubility of MJC13 in water, ethanol, propylene glycol, polyethylene glycol 400 (PEG 400), polysorbate 80 (Tween 80), olive oil, peanut oil, soybean oil, CAPTEX 200 and LABRAFAC Lipophile WL1349 was determined by a shake-flask method. Briefly, an excess amount of MJC13 was added to each capped glass bottle containing the selected vehicle and mixed for 48 hours at room temperature using a reciprocating shaker. The samples were centrifuged at 3000 rpm for 10 minutes and were subsequently filtered through a 0.22 μm ultrafiltration unit. The filtrates were analyzed by LC/MS/MS to determine the concentration of drug dissolved. The experiments were conducted in triplicate.
# [5] = Lipophilicity (log P) between water and 1-octanol, shake-flask; format: physicochemical; details: 1-octanol/water, room temperature, read-out: experimental log P
# Procedure: The lipophilicity of MJC13 was determined as the logarithm of partition coefficient (log P) of the solute between water and 1-octanol. Equal volumes of two-phase solution (water and 1-octanol) was mixed well in a capped glass bottle and then placed in a shaker for 24 hours to make sure that saturation equilibrium had been achieved. MJC13 (1 mL) dissolved in the two-phase solution was added the bottle. Then, MJC13 was partitioned between aqueous and 1-octanol for 72 hours at room temperature using the shake-flask method. The mixture from the bottle was centrifuged at 3000 rpm for 10 minutes and subsequently filtered through a 0.22 μm ultrafiltration unit, and then moved to a separatory funnel for phase separation. The aqueous and 1-octanol phases were analyzed by LC-MS/MS to determine the concentration of drug dissolved. Experiments were conducted in triplicate. The log P was calculated according to Eq. 3: […]
# where Co and Cw represent the concentrations of MJC13 in 1-octanol and aqueous phase, respectively.
# [6] = Rat plasma protein binding by ultrafiltration; format: in vitro ADME; details: 37° C.
# Procedure: In vitro rat plasma samples of MJC13 were prepared by diluting the stock solution with acetonitrile and spiking in rat plasma at five different concentrations: 100, 500, 1000, 2000 and 5000 ng/mL to approximate the plasma concentrations of MJC13 in rats after 2 mg/kg intravenous bolus dosing. The plasma was incubated at 37° C. for 1 hours before being transferred to Amicon Ultra-0.5 mL Centrifugal Filters (EMD Millipore Corporation, Billerica, Mass.) for ultrafiltration at 3000 rpm for 10 minutes. Filtrate and nonfiltrate concentrations were determined by LC-MS/MS. The fraction unbound, fu, was determined as Eq. 4:
# where Cu is the unbound concentration and Ct is the total concentration.
# [7] = Pharmacokinetics of MJC13 (Formulation PT4) after IV bolus in rats, three-compartment model; format: in vivo, Sprague-Dawley rats; details: single IV bolus 2 mg/kg, Formulation PT4, n = 8; for half-life / Vd: iv, 2 mg/kg
# Procedure: To further determine the fate of MJC13 in live animals and verify the applicability of the developed LC/MS/MS assay and formulations, pharmacokinetic studies were performed in rats. The animal experiment and protocol were reviewed and approved by the Institutional Animal Care and Use Committee at Texas Southern University. The jugular veins of eight male adult Sprague-Dawley rats (358˜377 g) were cannulated under anesthesia using a cocktail of ketamine:acetopromazine:xylazine (50:3.3:3.3 mg/kg) the day before the study. On the day of study, Formulation PT4, which includes PEG 400 and Tween 80 (1:1, v/v) with a MJC13 concentration of 7.5 mg/mL, was diluted to 1 mg/mL by normal saline. Blood and urine samples were collected from each rat right before dosing. Each rat was given a 2 mg/kg intravenous (IV) bolus dose of MJC13. Blood sample collecting tubes were heparinized and dried. In order to avoid any possible contamination, after dosing for each rat, the foremost part of each tubing associated with the needle for dosing was cut off, and then 0.5 mL of normal saline containing 20 U/mL heparin was injected to flush the tubing. Blood samples (250 μL; n=8) were collected at 5, 10, 15, 30 minutes, 1, 2, 4, 6, 8, 12, 24, 48 and 72 hours post injection, respectively. The blood samples were centrifuged at 13,000 rpm for 10 minutes and the supernatants (plasma) were obtained and immediately stored at −80° C. until analysis. Urine samples (n=4) were collected periodically, including 0-2, 2-4, 4-8, 8-12, 12-24, 24-48 and 48-72 hours post injection. After measurement of the overall urinary volume of each interval, urine samples were immediately stored at −80° C. until analysis. Within 48 hours, those plasma and urine samples were analyzed by the LC/MS/MS method of Example 1 to obtain MJC13 concentrations. After analysis, the plasma concentrations and cumulative urinary excretions of MJC13 were presented as the mean value with standard deviation (SD) and plotted against time by SigmaPlot 12.3 (Systat Software, San Jose, Calif.). (FIGS. 5, 6, 7A, and 7B).
# The intravenous drug plasma concentration-time data were pharmacokinetically analyzed separately for each rat by compartmental modeling using the microcomputer-based nonlinear regression program, WINNONLIN software 5.2.1 (Pharsight Corporation, Mountain View, Calif.). A three-compartment model was provided which best described the fit for the IV bolus administration based on the appearance of the observed and predicted concentrations, the reduction in the sums of squares, and the Akaike's information criterion (Yamaoka et al., J. Pharmacokinet Biopharm., 6(2): 165-75 (1978)). The three-compartment model is described by Eq. 5:
# Ct=A·e^−αt+B·e^−βt+C·e^−γt, Eq. 5
# where A, B and C are the coefficients, α is the α-phase hybrid rate constant, β is β-phase hybrid rate constant, γ is the γ-phase hybrid rate constant, and Ct is the plasma concentration of MJC13 at time t. The pharmacokinetic parameters thus derived were the systemic or plasma clearance (Cl), the volume of distribution (Vd), the total area under the plasma drug concentration-time curve (AUC), and half-lives (T1/2).
# [8] = Solubility of MJC13 in 50% (w/v) HP-β-CD aqueous solution; format: physicochemical
# Procedure: An excess amount of MJC13 was added to a sealed glass vial (2 ml) containing saturated (50% w/v) 2-hydroxypropyl-β-cyclodextrin (HP-β-CD) aqueous solution. The vial was shaken at room temperature for 72 hours. Thereafter, the solution was centrifuged, filtered through a 0.2 μm membrane and analyzed for MJC13 by the LC/MS/MS method of Example 1. Experiments were conducted in triplicate. […] It is believed that the resulting pharmaceutical composition has improved biocompatibility because it lacks TWEEN 80 (polysorbate 80).
# [9] = Solubility of MJC13 in various solvents, shake-flask method; format: physicochemical; details: DMSO, organic solvent or mixture
# [10] = system: AR; details: cellular models of prostate cancer, micromolar concentrations; cited from earlier work
# [11] = rat plasma extract, autosampler 2 hours
# [12] = rat plasma extract, autosampler 4 hours
# [13] = rat plasma extract, autosampler 6 hours
# [14] = rat urine extract, autosampler 2 hours
# [15] = rat urine extract, autosampler 4 hours
# [16] = rat urine extract, autosampler 6 hours
smiles,measurement,setting,value
O=C(Nc1cccc(Cl)c1Cl)C1CCCCC1 [MJC13],average MJC13 amount remaining,"[1]; rat plasma, bench-top, 2 hours",98.6±1.7%
same,average MJC13 amount remaining,"[1]; rat plasma, bench-top, 4 hours",97.6±2.0%
same,average MJC13 amount remaining,"[1]; rat plasma, bench-top, 6 hours",97.4±1.2%
same,average recoveries,"[1]; rat plasma, stored at −80° C. for 7 days",96.4±1.4%
same,average MJC13 amount remaining,"[1]; rat urine, bench-top, 2 hours",97.9±2.5%
same,average MJC13 amount remaining,"[1]; rat urine, bench-top, 4 hours",99.1±1.9%
same,average MJC13 amount remaining,"[1]; rat urine, bench-top, 6 hours",96.7±2.8%
same,average MJC13 amount remaining,"[1]; rat urine, stored at −80° C. for 7 days",95.9±2.7%
same,average MJC13 amount remaining,"[2]; rat plasma, three freeze (−20° C.)-thaw (room temperature) cycles",96.7±2.0%
same,average MJC13 amount remaining,"[2]; rat urine, three freeze-thaw cycles",97.5±2.4%
same,average recoveries,[3]; [11],97.6±1.3%
same,average recoveries,[3]; [12],98.3±1.5%
same,average recoveries,[3]; [13],96.7±0.7%
same,recoveries,[3]; [11],96.1±1.3%
same,recoveries,[3]; [12],97.6±1.1%
same,recoveries,[3]; [13],97.7±2.4%
same,average recoveries,[3]; [14],95.8±3.2%
same,average recoveries,[3]; [15],98.6±2.5%
same,average recoveries,[3]; [16],97.9±1.7%
same,recoveries,[3]; [14],97.4±2.2%
same,recoveries,[3]; [15],97.1±1.9%
same,recoveries,[3]; [16],96.4±3.3%
same,solubility at 48 h,"[4]; Captex 200, oil or lipid, Captex ® 200, room temperature, read-out: Solubility",31.9 ± 1.6 mg/mL
same,solubility at 48 h,"[4]; Labrafac Lipophile WL1349, oil or lipid, Labrafac ™ Lipophile WL1349, room temperature, read-out: Solubility",24 ± 1.1 mg/mL
same,solubility at 48 h,"[4]; PEG 400, organic solvent or mixture, PEG 400, room temperature, read-out: Solubility",23 ± 0.7 mg/mL
same,solubility at 48 h,"[4]; ethanol, organic solvent or mixture, Ethanol, room temperature, read-out: Solubility",35.6 ± 1.8 mg/mL
same,solubility at 48 h,"[4]; olive oil, oil or lipid, Olive oil, room temperature, read-out: Solubility",16.2 ± 0.3 mg/mL
same,solubility at 48 h,"[4]; peanut oil, oil or lipid, Peanut oil, room temperature, read-out: Solubility",15.6 ± 0.4 mg/mL
same,solubility at 48 h,"[4]; polysorbate 80 (Tween 80), organic solvent or mixture, Polysorbate 80, room temperature, read-out: Solubility",28.2 ± 0.7 mg/mL
same,solubility at 48 h,"[4]; propylene glycol, organic solvent or mixture, Propylene glycol, room temperature, read-out: Solubility",5.7 ± 0.2 mg/mL
same,solubility at 48 h,"[4]; soybean oil, oil or lipid, Soybean oil, room temperature, read-out: Solubility",17.3 ± 0.5 mg/mL
same,solubility at 48 h,"[4]; water, Water, room temperature, read-out: Solubility",0.00028 mg/mL
same,solubility at 48 h,"[4]; water, water, room temperature, read-out: water solubility",0.00028 mg/mL
same,logP at 72 h,[5],6.49 ± 0.37
same,"fraction bound at 1 h, 100 ng/mL",[6]; 100 ng/mL,0.981 ± 0.015
same,"fraction bound at 1 h, 500 ng/mL",[6]; 500 ng/mL,0.976 ± 0.027
same,"fraction bound at 1 h, 1000 ng/mL",[6]; 1000 ng/mL,0.996 ± 0.017
same,"fraction bound at 1 h, 2000 ng/mL",[6]; 2000 ng/mL,0.972 ± 0.028
same,"fraction bound at 1 h, 5000 ng/mL",[6]; 5000 ng/mL,0.979 ± 0.024
same,clearance,"[7]; male, Sprague-Dawley, plasma, rat, read-out: Cl (total body clearance)",0.362 ± 0.146 L/h/kg
same,half-life,"[7]; male, Sprague-Dawley, rat, plasma, rat plasma, read-out: T1/2α (elimination half-life of α-phase)",0.094 ± 0.0217 h
same,half-life,"[7]; male, Sprague-Dawley, rat, plasma, rat plasma, read-out: T1/2β (elimination half-life of β-phase)",2.1 ± 0.317 h
same,half-life,"[7]; male, Sprague-Dawley, rat, plasma, rat plasma, read-out: T1/2γ (elimination half-life of γ-phase)",32.3 ± 12.1 h
same,Vd,"[7]; male, Sprague-Dawley, rat, plasma, rat, read-out: V1 (volume of distribution of central compartment)",0.744 ± 0.074 L/kg
same,Vd,"[7]; male, Sprague-Dawley, rat, plasma, rat, read-out: Vss (volume of distribution at steady state)",10.8 ± 2.13 L/kg
same,AUC(0-inf),"[7]; male, Sprague-Dawley, rat plasma, read-out: AUC0-∞ (area under curve from time zero to infinity) (converted)",6.64 µg·h/mL
same,Cmax,"[7]; male, Sprague-Dawley, rat plasma, read-out: Cmax (maximum concentration)",2.71 ± 0.251 µg/mL
same,A (coefficient of α-phase),[7]; rat plasma,2124 ± 222 ng/mL
same,B (coefficient of β-phase),[7]; rat plasma,>483 ± 126 ng/mL
same,C (coefficient of γ-phase),[7]; rat plasma,101 ± 36 ng/mL
same,V2 (volume of distribution of first peripheral compartment),[7]; rat,2.038 ± 0.646 L/kg
same,V3 (volume of distribution of second peripheral compartment),[7]; rat,8.068 ± 1.6 L/kg
same,solubility at 72 h,"[8]; 50% (w/v) HP-β-CD aqueous solution, aqueous with cosolvent or surfactant or cyclodextrin, thermodynamic from solid, room temperature, 72 hours",2.6 ± 0.3 mg/mL
same,increase of solubility compared to MJC13 itself in pure water,[8]; 50% (w/v) HP-β-CD solution vs pure water,"10,000 fold"
same,solubility,[9],> 100 mg/mL
same,block of AR-dependent gene expression,[10],effectively block AR-dependent gene expression

# Reference: US20160030369A1, “FKBP52 TARGETING AGENT PHARMACEUTICAL COMPOSITIONS” (THE UNITED STATES OF AMERICA AS REPRESENTED BY THE …, priority 2013, published 2016)
